# Measurements from US20260207637A1, “MODULATOR FOR PROMOTING BINDING OF BUTYROPHILIN 3A1/2A1” (priority 2023, published 2026).
# Tested on: MIApaca/FG2 cells
# Experiment: EC50 assay of small molecule activated γδ T cells to kill MIApaca/FG2 tumor cells (3-fold dilution protocol)
# Type: cell-based
# Details: γδT cells + MIApaca/FG2, E:T=2:1, co-culture 20 hours, 0.05-100 nM, read-out: MIApaca killing (EC50)
# Protocol: γδT cells and MIApaca/FG2 tumor cell lines were expanded and cultured in vitro. MIApaca/FG2 cells were digested, and the cells were counted and resuspended in DMEM complete medium, the density of the cell suspension was adjusted and added into a 96-well plate at 5×10^3 cells/100 […]/well for overnight incubation. On the next day, the test compound and the control compound were diluted at a 3-fold ratio with DMSO, and 4 μL of the diluted compound was added to 96 μL of culture medium for 25-fold dilution. 5 μL of 25-fold diluted compound was transferred to the corresponding well which had been plated with tumor cells, and the actual detection concentration was in the range of 0.05-100 nM. γδT cells were resuspended in γδT complete medium, and the density of the cell suspension was adjusted according to the effector-target ratio of E:T=2:1, and then the cell was added to the corresponding well at 1×10^4 cells/100 μL/well. After co-culture at 37° C., 5% CO2 for 20 hours, the cells were centrifuged. The supernatant was removed, and 50 μL of cell lysate containing fluorescein substrate was added to each well. After standing for 18 minutes in the dark, the signal of chemiluminescence was detected. The EC50 value was calculated by four-parameter fitting, with the corresponding signal value of the well with only tumor cells as the minimum killing value, and the corresponding value of the well without tumor cells as the maximum killing value. The killing data of MIApaca/FG2 cells is as follows: […]
row,Structure (SMILES),EC50
1,C/C(=C\CCP(=O)(N[C@@H](C)C(=O)O[C@@H]1CCOC1)Oc1ccc(Cl)cc1)CO (some centres unmarked) [Compound 15],0.2 nM
2,C/C(=C\CCP(=O)(N[C@@H](C)C(=O)O[C@@H]1CCOC1)Oc1ccc(C)cc1)CO (some centres unmarked) [Compound 16],0.55 nM
3,C/C(=C\CCP(=O)(N[C@@H](C)C(=O)O[C@@H]1CCOC1)Oc1cccc2ccccc12)CO (some centres unmarked) [Compound 17],0.12 nM
4,"CC(C)OC(=O)[C@H](C)NP(=O)(CC/C=C(\F)CO)Oc1ccccc1 (stereo partly drawn) [Compound 23, Isopropyl (((Z)-4-fluoro-5-hydroxy-3-en-1-yl)(phenoxy)phosphoryl)-L-alaninate]",3.96 nM
5,"CC(C)OC(=O)[C@H](C)NP(=O)(CC/C=C(/CO)C(F)(F)F)Oc1ccccc1 (stereo partly drawn) [Compound 24, isopropyl (phenoxy((Z)-5,5,5-trifluoro-4-(hydroxymethyl)pent-3-en-1-yl)phosphoryl)-L-alaninate]",0.78 nM
6,"C/C(=C\CCP(=O)(N[C@@H](C)C(=O)OCCO)Oc1ccccc1)CO (stereo partly drawn) [Compound 25, 2-Hydroxyethyl (((E)-5-hydroxy-4-methylpent-3-en-1-yl)(phenoxy)phosphoryl)-L-alaninate]",0.17 nM
7,"C/C(=C\CCP(=O)(NC(C)(C)C(=O)O[C@@H]1CCOC1)Oc1ccccc1)CO (stereo partly drawn) [Compound 26, (R)-tetrahydrofuran-3-yl 2-((((E)-5-hydroxy-4-methylpent-3-en-1-yl)(phenoxy)phosphoryl)amino)-2-methylpropanoate]",0.1 nM
8,"C/C(=C\CCP(=O)(N[C@@H](C)C(=O)OC1CCS(=O)(=O)CC1)Oc1ccccc1)CO (stereo partly drawn) [Compound 28, 1,1-Dioxotetrahydro-2H-thiopyran-4-yl (((E)-5-hydroxy-4-methylpent-3-en-1-yl)(phenoxy)phosphoryl)-L-alaninate]",0.88 nM
9,CC(=O)N1CCC(OC(=O)[C@H](C)NP(=O)(CC/C=C(\C)CO)Oc2ccccc2)CC1 (some centres unmarked) [Compound 29],1.63 nM
10,"C/C(=C\CCP(=O)(N[C@@H](C)C(=O)O[C@H]1C[C@@H](C)O[C@@H](C)C1)Oc1ccccc1)CO (stereo partly drawn) [Compound 34, (2R,4r,6S)-2,6-dimethyltetrahydro-2H-pyran-4-yl (((E)-5-hydroxy-4-methylpent-3-en-1-yl)(phenoxy)phosphoryl)-L-alaninate]",1.03 nM
11,C/C(=C\CC(F)(F)P(=O)(N[C@@H](C)C(=O)OC1CCOCC1)Oc1ccccc1)CO (some centres unmarked) [Compound 38],0.65 nM
